According to publication PMC7523345 (Investigational new drugs, 2018):
Entries after “also recorded” stand apart in the source; their conditions may differ.

Test: Phase I dose escalation study: safety, tolerability, DLT and MTD
Format: in vivo

Cc1cccc2c1NC(=O)[C@@H](NC(=O)[C@H](CCC(F)(F)F)[C@H](CCC(F)(F)F)C(N)=O)N=C2c1cccc(F)c1 [BMS-986115]
Vision blurred (drug related AE, all grades) (Arm B BIW 8 mg (N = 8)): 1 (13) n (%)
Vomiting (drug related AE, Grade 3 and 4) (Arm B BIW 8 mg (N = 8)): 0 n (%)
Vomiting (drug related AE, all grades) (Arm B BIW 8 mg (N = 8)): 4 (50) n (%)
Weight decreased (drug related AE, all grades) (Arm B BIW 8 mg (N = 8)): 0 n (%)
No. of patients with DLTs (Arm B BIW 8 mg, 6 DLT evaluable patients): 2
Abdominal distension (drug related AE, all grades) (Arm B BIW Total (N = 12)): 1 (8) n (%)
Abdominal pain (drug related AE, Grade 3 and 4) (Arm B BIW Total (N = 12)): 0 n (%)
Abdominal pain (drug related AE, all grades) (Arm B BIW Total (N = 12)): 1 (8) n (%)
Blood creatinine increased (drug related AE, all grades) (Arm B BIW Total (N = 12)): 1 (8) n (%)
Colitis (drug related AE, Grade 3 and 4) (Arm B BIW Total (N = 12)): 0 n (%)
Cough (drug related AE, Grade 3 and 4) (Arm B BIW Total (N = 12)): 0 n (%)
Cough (drug related AE, all grades) (Arm B BIW Total (N = 12)): 1 (8) n (%)
Decreased Appetite (drug related AE, Grade 3 and 4) (Arm B BIW Total (N = 12)): 1 (8) n (%)
Decreased Appetite (drug related AE, all grades) (Arm B BIW Total (N = 12)): 5 (42) n (%)
Dehydration (drug related AE, Grade 3 and 4) (Arm B BIW Total (N = 12)): 1 (8) n (%)
Dehydration (drug related AE, all grades) (Arm B BIW Total (N = 12)): 2 (17) n (%)
Dermatitis acneiform (drug related AE, all grades) (Arm B BIW Total (N = 12)): 0 n (%)
Diarrhoea (drug related AE, Grade 3 and 4) (Arm B BIW Total (N = 12)): 3 (25) n (%)
Diarrhoea (drug related AE, all grades) (Arm B BIW Total (N = 12)): 8 (67) n (%)
Dry mouth (drug related AE, all grades) (Arm B BIW Total (N = 12)): 1 (8) n (%)
Dry skin (drug related AE, all grades) (Arm B BIW Total (N = 12)): 2 (17) n (%)
Dysgeusia (drug related AE, all grades) (Arm B BIW Total (N = 12)): 2 (17) n (%)
Dyspepsia (drug related AE, all grades) (Arm B BIW Total (N = 12)): 1 (8) n (%)
Dysphonia (drug related AE, all grades) (Arm B BIW Total (N = 12)): 1 (8) n (%)
Fatigue (drug related AE, Grade 3 and 4) (Arm B BIW Total (N = 12)): 0 n (%)
Fatigue (drug related AE, all grades) (Arm B BIW Total (N = 12)): 6 (50) n (%)
Flatulence (drug related AE, all grades) (Arm B BIW Total (N = 12)): 3 (25) n (%)
Hypocalcaemia (drug related AE, Grade 3 and 4) (Arm B BIW Total (N = 12)): 1 (8) n (%)
Hypocalcaemia (drug related AE, all grades) (Arm B BIW Total (N = 12)): 1 (8) n (%)
Hypokalaemia (drug related AE, Grade 3 and 4) (Arm B BIW Total (N = 12)): 0 n (%)
Hypokalaemia (drug related AE, all grades) (Arm B BIW Total (N = 12)): 3 (25) n (%)
Hyponatraemia (drug related AE, Grade 3 and 4) (Arm B BIW Total (N = 12)): 1 (8) n (%)
Hyponatraemia (drug related AE, all grades) (Arm B BIW Total (N = 12)): 1 (8) n (%)
Hypophosphataemia (drug related AE, Grade 3 and 4) (Arm B BIW Total (N = 12)): 6 (50) n (%)
Hypophosphataemia (drug related AE, all grades) (Arm B BIW Total (N = 12)): 7 (58) n (%)
Ileus (drug related AE, Grade 3 and 4) (Arm B BIW Total (N = 12)): 0 n (%)
Increased upper airway secretion (drug related AE, all grades) (Arm B BIW Total (N = 12)): 3 (25) n (%)
Laryngeal pain (drug related AE, all grades) (Arm B BIW Total (N = 12)): 0 n (%)
Leucocytosis (drug related AE, Grade 3 and 4) (Arm B BIW Total (N = 12)): 1 (8) n (%)
Mouth ulceration (drug related AE, all grades) (Arm B BIW Total (N = 12)): 1 (8) n (%)
Nausea (drug related AE, Grade 3 and 4) (Arm B BIW Total (N = 12)): 1 (8) n (%)
Nausea (drug related AE, all grades) (Arm B BIW Total (N = 12)): 7 (58) n (%)
Pruritus (drug related AE, Grade 3 and 4) (Arm B BIW Total (N = 12)): 0 n (%)
Pruritus (drug related AE, all grades) (Arm B BIW Total (N = 12)): 3 (25) n (%)
Pulmonary embolism (drug related AE, Grade 3 and 4) (Arm B BIW Total (N = 12)): 0 n (%)
Rash (drug related AE, all grades) (Arm B BIW Total (N = 12)): 3 (25) n (%)
Rash maculopapular (drug related AE, all grades) (Arm B BIW Total (N = 12)): 3 (25) n (%)
Sinusitis (drug related AE, all grades) (Arm B BIW Total (N = 12)): 0 n (%)
Urticaria (drug related AE, Grade 3 and 4) (Arm B BIW Total (N = 12)): 0 n (%)
Vision blurred (drug related AE, all grades) (Arm B BIW Total (N = 12)): 1 (8) n (%)
Vomiting (drug related AE, Grade 3 and 4) (Arm B BIW Total (N = 12)): 0 n (%)
Vomiting (drug related AE, all grades) (Arm B BIW Total (N = 12)): 4 (33) n (%)
Weight decreased (drug related AE, all grades) (Arm B BIW Total (N = 12)): 0 n (%)
Patients with dose limiting toxicities (Arm B BIW, all dose levels): 2 patients
Treatment-related SAEs, description (Arm B BIW, one line per subject): Gr 3 diarrhoea; also recorded: Gr 3 nausea, dehydration and decreased appetite
Maximum Tolerated Dose (MTD) (Arm B, twice weekly (BIW) oral dosing): not established
Treatment-related deaths (all 36 patients): no treatment-related deaths
Subjects who discontinued due to treatment-related AEs (all 36 subjects): 5 subjects
Subjects who discontinued treatment due to AEs (all 36 subjects): 25%
Subjects with treatment-related SAEs (all 36 subjects): 22%
Subjects with SAEs (all 36 subjects, overall): 50%
Hypokalaemia, treatment-related Gr 3 or 4 AE (all patients): 11%
Hyponatraemia, treatment-related Gr 3 or 4 AE (all patients): 6%
Nausea, treatment-related Gr 3 or 4 AE (all patients): 11%
Decreased appetite, treatment related AE (all patients, all grades): 36%
Diarrhoea, treatment related AE (all patients, all grades): 72%
Hypokalaemia, treatment related AE (all patients, all grades): 28%
Hypophosphataemia, treatment related AE (all patients, all grades): 64%
Nausea, treatment related AE (all patients, all grades): 61%
Rash, treatment related AE (all patients, all grades): 31%
Diarrhoea, AE regardless of causality (all treated subjects): 72%
